What was measured:
[1] = xn = mol fraction of the nth substance listed; settings: 298 K, 101 kPa, Liquid; for speed of sound: Anton Paar DSA 48; for mass density: Vibrating tube method
[2] = refractive index (Na D-line) (dimensionless); xn = mol fraction of the nth substance listed; settings: 298 K, 101 kPa, Liquid, ATAGO RX-1000

CCCCOC(C)(C)C [butane, 1-(1,1-dimethylethoxy)-] + CO
Settings	mass density, [1] [kg/m3]	refractive index, [2]	speed of sound, [1] [m/s]
x1 = 0.0406	783.42	1.33673	1103
x1 = 0.0518	782.76	1.33916	1104
x1 = 0.0974	780.08	1.34774	1103
x1 = 0.0984	779.91	1.34786	1104
x1 = 0.1493	777.55	1.35545	1105
x1 = 0.198	775.42	1.36125	1107
x1 = 0.2051	775.26	1.36198	1107
x1 = 0.2448	773.83	1.3658	1108
x1 = 0.2974	772.2	1.37001	1109
x1 = 0.3373	770.98	1.37281	1109
x1 = 0.3581	770.41	1.37411	1109
x1 = 0.3783	769.88	1.37529	1109
x1 = 0.3922	769.7	1.37605	1111
x1 = 0.4633	767.85	1.37952	1111
x1 = 0.4954	767.15	1.38087	1113
x1 = 0.5003	767.05	1.38106	1111
x1 = 0.5598	765.86	1.38325	1112
x1 = 0.5955	765.21	1.3845	1114
x1 = 0.6138	764.85	1.38496	1113
x1 = 0.6463	764.27	1.38588	1113
x1 = 0.6737	763.79	1.3866	1114
x1 = 0.6923	763.48	1.38706	1114
x1 = 0.721	762.99	1.38773	1114
x1 = 0.7904	761.8	1.38914	1114
x1 = 0.7934	761.75	1.38918	1114
x1 = 0.8479	760.78	1.3901	1114
x1 = 0.8631	760.5	1.39032	1114
x1 = 0.8964	759.86	1.3907	1115
x1 = 0.9255	759.26	1.39109	1114

From the NIST ThermoML archive (doi:10.1016/j.tca.2005.04.030)
